Measurements taken from patent US8796289B2 (AbbVie Inc., priority 2011, dated 2014).

The molecules below were run against GST-tagged-Wee1 kinase (Homo sapiens, UniProt P30291) (assay: Wee1 time-resolved fluorescence equilibrium binding assay (displacement of Oregon Green-labeled ATP-competitive kinase probe)).
Description: Wee1 kinase was assayed using a time-resolved fluorescence equilibrium binding assay monitoring displacement of a rapidly reversible Oregon Green-labeled ATP-competitive kinase probe (N-(2-(2-(2-(4-(4-(5-chloro-4-(2-(1-hydroxycyclobutyl)thiazol-5-yl)-1H-pyrrolo[2,3-b]pyridin-2-yl)phenyl)piperazin-1-yl)ethoxy)ethoxy)ethyl)-2′,7′-difluoro-3′,6′-dihydroxy-3-oxo-3H-spiro[isobenzofuran-1,9′-xanthene]-5-carboxamide) by competitive Wee1 inhibitors.

Chain of GST-tagged-Wee1 kinase (P30291 whole entry): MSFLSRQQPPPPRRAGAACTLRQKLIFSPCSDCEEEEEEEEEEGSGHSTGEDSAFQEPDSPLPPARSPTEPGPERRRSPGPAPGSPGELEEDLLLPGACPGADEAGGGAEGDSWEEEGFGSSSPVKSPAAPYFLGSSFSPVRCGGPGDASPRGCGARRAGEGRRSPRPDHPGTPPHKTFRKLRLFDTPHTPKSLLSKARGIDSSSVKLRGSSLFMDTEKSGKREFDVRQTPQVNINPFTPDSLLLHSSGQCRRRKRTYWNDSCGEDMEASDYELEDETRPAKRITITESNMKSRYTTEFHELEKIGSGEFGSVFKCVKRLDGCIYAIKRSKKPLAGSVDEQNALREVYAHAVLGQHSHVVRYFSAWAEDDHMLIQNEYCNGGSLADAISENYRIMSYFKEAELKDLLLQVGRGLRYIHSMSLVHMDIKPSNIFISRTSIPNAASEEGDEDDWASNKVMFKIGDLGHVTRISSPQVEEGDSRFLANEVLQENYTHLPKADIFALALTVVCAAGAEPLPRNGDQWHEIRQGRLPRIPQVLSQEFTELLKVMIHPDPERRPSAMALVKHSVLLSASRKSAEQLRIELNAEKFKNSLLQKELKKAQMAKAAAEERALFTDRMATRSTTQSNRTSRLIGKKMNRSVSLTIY

Ki [nM] | SMILES
0.4 | Cc1ccccc1-n1nc(-c2cccs2)c2nc(Nc3ccc4c(c3)CN(C)CC43CC3)ncc2c1=O [Example 130, 2-[(2′-methyl-2′,3′-dihydro-1′H-spiro[cyclopropane-1,4′-isoquinolin]-7′-yl)amino]-6-(2-methylphenyl)-8-(2-thienyl)pyrimido[4,5-d]pyridazin-5(6H)-one]
0.5 | CC(C)N1CCN(c2ccc(Nc3ncc4c(=O)n(-c5ccccc5Cl)nc(-c5ccccc5)c4n3)cc2)CC1 [Example 131, 6-(2-chlorophenyl)-2-{[4-(4-isopropylpiperazin-1-yl)phenyl]amino}-8-phenylpyrimido[4,5-d]pyridazin-5(6H)-one]
0.7 | COc1cc(Nc2ncc3c(=O)n(-c4ccccc4C)nc(-c4cccs4)c3n2)ccc1N1CCN(C(C)C)CC1 [Example 132, 2-{[4-(4-isopropylpiperazin-1-yl)-3-methoxyphenyl]amino}-6-(2-methylphenyl)-8-(2-thienyl)pyrimido[4,5-d]pyridazin-5(6H)-one]
3 | Cc1cc(Nc2ncc3c(=O)n(-c4ccccc4C)nc(-c4ccco4)c3n2)ccc1N1CCN(C(C)C)CC1 [Example 133, 8-(2-furyl)-2-{[4-(4-isopropylpiperazin-1-yl)-3-methylphenyl]amino}-6-(2-methylphenyl)pyrimido[4,5-d]pyridazin-5(6H)-one]
0.6 | Cc1ccccc1-n1nc(-c2ccccc2)c2nc(Nc3ccc(N4CCN(C(C)C)CC4)cc3)ncc2c1=O [Example 134, 2-{[4-(4-isopropylpiperazin-1-yl)phenyl]amino}-6-(2-methylphenyl)-8-phenylpyrimido[4,5-d]pyridazin-5(6H)-one]
8 | Cc1ccccc1-n1nc(-c2ccco2)c2nc(Nc3ccc(N4CCCC4=O)cc3)ncc2c1=O [Example 135, 8-(2-furyl)-6-(2-methylphenyl)-2-{[4-(2-oxopyrrolidin-1-yl)phenyl]amino}pyrimido[4,5-d]pyridazin-5(6H)-one]
14 | C=CCn1nc(-c2ccco2)c2nc(Nc3ccc(N4CCN(C(C)C)CC4)c(OC)c3)ncc2c1=O [Example 136, 6-allyl-8-(2-furyl)-2-{[4-(4-isopropylpiperazin-1-yl)-3-methoxyphenyl]amino}pyrimido[4,5-d]pyridazin-5(6H)-one]
22 | C=CCn1nc(-c2ccco2)c2nc(Nc3ccc(CN(C)C)cc3)ncc2c1=O [Example 137, 6-allyl-2-({4-[(dimethylamino)methyl]phenyl}amino)-8-(2-furyl)pyrimido[4,5-d]pyridazin-5(6H)-one]
1.5 | COc1cc(Nc2ncc3c(=O)n(-c4ccccc4C)nc(-c4ccco4)c3n2)ccc1N1CCN(C(C)C)CC1 [Example 138, 8-(2-furyl)-2-{[4-(4-isopropylpiperazin-1-yl)-3-methoxyphenyl]amino}-6-(2-methylphenyl)pyrimido[4,5-d]pyridazin-5(6H)-one]
5 | C=CCn1nc(-c2ccccc2)c2nc(Nc3ccc(N4CCN(C(C)C)CC4)cc3)ncc2c1=O [Example 139, 6-allyl-2-{[4-(4-isopropylpiperazin-1-yl)phenyl]amino}-8-phenylpyrimido[4,5-d]pyridazin-5(6H)-one]
> 3140 | C=CCn1nc(-c2ccco2)c2nc(Nc3ccc(S(=O)(=O)N4CCOCC4)cc3)ncc2c1=O [Example 140, 6-allyl-8-(2-furyl)-2-{[4-(morpholin-4-ylsulfonyl)phenyl]amino}pyrimido[4,5-d]pyridazin-5(6H)-one]
7 | Cc1ccccc1-n1nc(-c2ccccc2)c2nc(Nc3ccc(N4CCCC4=O)cc3)ncc2c1=O [Example 141, 6-(2-methylphenyl)-2-{[4-(2-oxopyrrolidin-1-yl)phenyl]amino}-8-phenylpyrimido[4,5-d]pyridazin-5(6H)-one]
57 | C=CCn1nc(-c2ccccc2)c2nc(Nc3ccc(N4CCCC4=O)cc3)ncc2c1=O [Example 142, 6-allyl-2-{[4-(2-oxopyrrolidin-1-yl)phenyl]amino}-8-phenylpyrimido[4,5-d]pyridazin-5(6H)-one]
39 | C=CCn1nc(-c2ccccc2)c2nc(Nc3ccc(CN(C)C)cc3)ncc2c1=O [Example 143, 6-allyl-2-({4-[(dimethylamino)methyl]phenyl}amino)-8-phenylpyrimido[4,5-d]pyridazin-5(6H)-one]
2 | C=CCn1nc(-c2ccco2)c2nc(Nc3ccc4c(c3)CN(C)CC43CC3)ncc2c1=O [Example 144, 6-allyl-8-(2-furyl)-2-[(2′-methyl-2′,3′-dihydro-1′H-spiro[cyclopropane-1,4′-isoquinolin]-7′-yl)amino]pyrimido[4,5-d]pyridazin-5(6H)-one]
0.3 | Cc1ccccc1-n1nc(-c2ccco2)c2nc(Nc3ccc4c(c3)CN(C)CC43CC3)ncc2c1=O [Example 145, 8-(2-furyl)-2-[(2′-methyl-2′,3′-dihydro-1′H-spiro[cyclopropane-1,4′-isoquinolin]-7′-yl)amino]-6-(2-methylphenyl)pyrimido[4,5-d]pyridazin-5(6H)-one]
3 | C=CCn1nc(-c2ccco2)c2nc(Nc3ccc(N4CCN(C(C)C)CC4)c(C)c3)ncc2c1=O [Example 146, 6-allyl-8-(2-furyl)-2-{[4-(4-isopropylpiperazin-1-yl)-3-methylphenyl]amino}pyrimido[4,5-d]pyridazin-5(6H)-one]
12 | CC(C)N1CCCC(c2nn(-c3c(Cl)cccc3Cl)c(=O)c3cnc(Nc4ccc(N5CCN(C)CC5)cc4)nc23)C1 (stereo not drawn) [Example 147, 6-(2,6-dichlorophenyl)-8-(1-isopropylpiperidin-3-yl)-2-{[4-(4-methylpiperazin-1-yl)phenyl]amino}pyrimido[4,5-d]pyridazin-5(6H)-one]
16 | CN1CCN(c2ccc(Nc3ncc4c(=O)n(-c5c(Cl)cccc5Cl)nc(C5CCNCC5)c4n3)cc2)CC1 [Example 148, 6-(2,6-dichlorophenyl)-2-{[4-(4-methylpiperazin-1-yl)phenyl]amino}-8-(piperidin-4-yl)pyrimido[4,5-d]pyridazin-5(6H)-one]
0.05 | CN1Cc2cc(Nc3ncc4c(=O)n(-c5c(Cl)cccc5Cl)nc(-c5cnn(C)c5)c4n3)ccc2C2(CC2)C1 [Example 149, 6-(2,6-dichlorophenyl)-2-[(2′-methyl-2′,3′-dihydro-1′H-spiro[cyclopropane-1,4′-isoquinolin]-7′-yl)amino]-8-(1-methyl-1H-pyrazol-4-yl)pyrimido[4,5-d]pyridazin-5(6H)-one]
0.1 | Cc1cc(Nc2ncc3c(=O)n(-c4c(Cl)cccc4Cl)nc(-c4cnn(C)c4)c3n2)ccc1N1CCCN(C)CC1 [Example 150, 6-(2,6-dichlorophenyl)-2-{[3-methyl-4-(4-methyl-1,4-diazepan-1-yl)phenyl]amino}-8-(1-methyl-1H-pyrazol-4-yl)pyrimido[4,5-d]pyridazin-5(6H)-one]
0.07 | CN1CCN(c2ccc(Nc3ncc4c(=O)n(-c5c(Cl)cccc5Cl)nc(-c5ccn(C)n5)c4n3)cc2)CC1 [Example 151, 6-(2,6-dichlorophenyl)-2-{[4-(4-methylpiperazin-1-yl)phenyl]amino}-8-(1-methyl-1H-pyrazol-3-yl)pyrimido[4,5-d]pyridazin-5(6H)-one]
0.04 | Cc1cc(Nc2ncc3c(=O)n(-c4c(Cl)cccc4Cl)nc(-c4ccn(C)n4)c3n2)ccc1N1CCCN(C)CC1 [Example 152, 6-(2,6-dichlorophenyl)-2-{[3-methyl-4-(4-methyl-1,4-diazepan-1-yl)phenyl]amino}-8-(1-methyl-1H-pyrazol-3-yl)pyrimido[4,5-d]pyridazin-5(6H)-one]
0.05 | CN1Cc2cc(Nc3ncc4c(=O)n(-c5c(Cl)cccc5Cl)nc(-c5ccn(C)n5)c4n3)ccc2C2(CC2)C1 [Example 153, 6-(2,6-dichlorophenyl)-2-[(2′-methyl-2′,3′-dihydro-1′H-spiro[cyclopropane-1,4′-isoquinolin]-7′-yl)amino]-8-(1-methyl-1H-pyrazol-3-yl)pyrimido[4,5-d]pyridazin-5(6H)-one]
9 | CN1CCN(c2ccc(Nc3ncc4c(=O)n(-c5ccccc5)nc(-c5ccncc5)c4n3)cc2)CC1 [Example 154, 2-{[4-(4-methylpiperazin-1-yl)phenyl]amino}-6-phenyl-8-(pyridin-4-yl)pyrimido[4,5-d]pyridazin-5(6H)-one]
0.4 | CN1CCN(c2ccc(Nc3ncc4c(=O)n(-c5ccccc5Cl)nc(-c5ccncc5)c4n3)cc2)CC1 [Example 155, 6-(2-chlorophenyl)-2-{[4-(4-methylpiperazin-1-yl)phenyl]amino}-8-(pyridin-4-yl)pyrimido[4,5-d]pyridazin-5(6H)-one]
0.03 | CN1CCN(c2ccc(Nc3ncc4c(=O)n(-c5c(Cl)cccc5Cl)nc(-c5ccncc5)c4n3)cc2)CC1 [Example 156, 6-(2,6-dichlorophenyl)-2-{[4-(4-methylpiperazin-1-yl)phenyl]amino}-8-(pyridin-4-yl)pyrimido[4,5-d]pyridazin-5(6H)-one]
0.05 | CN1CCN(c2ccc(Nc3ncc4c(=O)n(-c5c(Cl)cccc5Cl)nc(-c5cccc(CN6CCCCC6)c5)c4n3)cc2)CC1 [Example 157, 6-(2,6-dichlorophenyl)-2-{[4-(4-methylpiperazin-1-yl)phenyl]amino}-8-[3-(piperidin-1-ylmethyl)phenyl]pyrimido[4,5-d]pyridazin-5(6H)-one]
0.2 | CN1CCN(c2ccc(Nc3ncc4c(=O)n(-c5c(Cl)cccc5Cl)nc(-c5cccc(CNC6CCC6)c5)c4n3)cc2)CC1 [Example 158, 8-{3-[(cyclobutylamino)methyl]phenyl}-6-(2,6-dichlorophenyl)-2-{[4-(4-methylpiperazin-1-yl)phenyl]amino}pyrimido[4,5-d]pyridazin-5(6H)-one]
0.06 | COC(=O)c1cccc(-c2nn(-c3c(Cl)cccc3Cl)c(=O)c3cnc(Nc4ccc(N5CCN(C)CC5)cc4)nc23)n1 [Example 159, methyl 6-[6-(2,6-dichlorophenyl)-2-{[4-(4-methylpiperazin-1-yl)phenyl]amino}-5-oxo-5,6-dihydropyrimido[4,5-d]pyridazin-8-yl]pyridine-2-carboxylate]
